Experimental data: patent US11326167B2, “Methods and compositions for treating atherosclerosis” (YALE UNIVERSITY, priority 2016, dated 2022)

How the values were obtained:
[1] = test system: primary human aortic smooth muscle cells (HASMCs); test: Immunoblot of p-Smad2 and SM-calponin in control and FRS2α knockdown HASMCs treated with SB431542; assay type: cell-based; details: SB431542 10 μM
Text: FIGS. 2A-2F are images and plots showing that FRS2α knockdown increases smooth muscle marker gene expression via the TGFβ pathway in primary human aortic smooth muscle cells (HASMCs). […] Blots are representative of four independent experiments. […] R-actin was used for sample loading normalization. […] FIGS. 2D-2F show immunoblots of smooth muscle markers, phosphorylated Smad2 (p-Smad2), and TGFβR1 expression in control and FRS2α knockdown HASMCs treated with SB431542 ([…]), TGFβR2 or Smad2 shRNA lentiviruses. Blots are representative of three independent experiments.
The TGFβR1 kinase inhibitor SB431542 (Sigma S4317) was reconstituted in DMSO (Sigma D2650) and used at a final concentration of 10 μM in cell culture.
Mouse Tgfbr1 and Tgfbr2 shRNA lentiviral constructs were purchased from Sigma. Human FGFR1, human Smad2 and human TGFβR2 shRNA lentiviral constructs were purchased from Sigma and human FRS2α shRNA lentiviral construct was purchased from Open Biosystems. For the production of shRNA lentivirus, 3.7 μg of A8.2, 0.2 μg of VSVG, and 2.1 μg of pLKO.1 carrying the control, FGFR1, FRS2α, Smad2, or TGFβR2 shRNA were co-transfected into 293T cells using X-tremeGENE 9 DNA Transfection Reagent (Roche 06365787001). Forty-eight hours later the medium was harvested, cleared by 0.45 μm filter (PALL Life Sciences PN4184), mixed with polybrene (5 μg/ml) (Sigma H9268), and applied to cells. […]

Apoe^−/− mice = test: Oil Red O atherosclerotic lesion area after 7C1-siTgfbr and/or rapamycin, 4 months of high fat diet; assay type: in vivo, mouse
Text: FIGS. 45A-45B are a graph and a series of images showing that 7C1-siTgfbr and rapamycin suppress atherosclerosis lesion development in Apoe^−/− mice after 4 months of high fat diet. FIG. 45A: Time frame of 7C1-siTgfbr1/Tgfbr2 lipid nanoparticle and rapamycin injections. FIG. 45B: Representative photomicrographs of Oil Red O-stained atherosclerotic lesions in PBS, 7C1-siLuciferase, DMSO, Rapamycin, or 7C1-siTgfbr treated mice.
FIG. 46 is a histogram illustrating the quantification of atherosclerotic lesions from FIG. 45B. Lesion area quantification. % Lesion area is the lesion area/total area of aorta. All data shown as mean±SD. (***p<0.001; one-way ANOVA with Newman-Keuls post hoc test for multiple comparison correction).
Apoe^−/− and Frs2^SMCKO/Apoe^−/− male mice were fed a Western diet (40% kcal % Fat, 1.25% Cholesterol, 0% Cholic Acid) for 8 or 16 weeks (Research Diets, product #D12108) starting at the age of 8 weeks. After 8 or 16 weeks of being fed a high-fat diet, mice were anesthetized and euthanized. […] The lesions located in the aorta, aortic roots and abdominal aorta were analyzed using Oil Red 0 staining. […] The surface lesion area was quantified with ImageJ software (NIH). […]
FIG. 46 is a histogram illustrating the quantification of atherosclerotic lesions from FIG. 45B. […]

[2] = test system: Apoe^−/− and Frs2α^iECKO/Apoe^−/− mice; test: Tolerability of 7C1-let-7 injections: body weight, blood counts, serum lipids, organs, liver function, skin; assay type: in vivo, mouse; details: after 16 weeks on high cholesterol diet
Text: FIGS. 24A-24E are a series of graphs showing that 7C1-let-7 mimics treatment have no effect on mouse body weight and serum lipid profile. FIG. 24A: Time frame of gene inactivation and 7C1 lipid nanoparticle injections. FIG. 24B: Serum triglycerides, total cholesterol, and HDL-C levels from Apoe^−/− and Frs2^iECKO/Apoe^−/− mice after 16 weeks on a high cholesterol diet (NS: not significant by one-way ANOVA with Newman-Keuls post-hoc test). FIG. 24C: Individual body weights in each group were measured every week. FIGS. 24D-24E: qPCR analysis of let-7b and Tgfbr1 expression in lung endothelial cells after treatment with 7C1-let-7 particles. All data shown as mean±s.d. (*p<0.05; **p<0.01; ***p<0.001 compared with Luciferase; one-way ANOVA with Newman-Keuls post hoc test for multiple comparison correction). N=4-6 mice per group.
Serum was obtained through centrifugation of the blood for 2 min at 10,000 rpm at 4° C. and stored at −80° C. until each assay was performed. […]
A decline in let-7 miRs expression has been previously linked to activation of TGFβ signaling (Chen et al., 2012, Cell reports 2: 1684-1696; Chen et al, 2014 Science signaling 7, ra90). […] Measurements of the following were taken from mice in each group: body weight, complete blood counts, skin pictures, serum lipid profiles, organ weight, and whole aorta oil red-O staining and quantification (FIGS. 24C, 25, 23, 24B, 27, and 29).

NC(=O)c1ccc(-c2nc(-c3ccc4c(c3)OCO4)c(-c3ccccn3)[nH]2)cc1 [SB431542]
FRS2α knockdown-induced increase in SM-calponin levels [1]: effectively attenuated
FRS2α knockdown-induced increase in p-Smad2 levels [1]: effectively attenuated

CO[C@H]1C[C@@H]2CC[C@@H](C)[C@@](O)(O2)C(=O)C(=O)N2CCCC[C@H]2C(=O)O[C@H]([C@H](C)C[C@@H]2CC[C@@H](O)[C@H](OC)C2)CC(=O)[C@H](C)/C=C(\C)[C@@H](O)[C@@H](OC)C(=O)[C@H](C)C[C@H](C)/C=C/C=C/C=C/1C [rapamycin]
reduction in atherosclerotic lesion (% lesion area = lesion area/total area of aorta) (Apoe^−/− mice): 58%

mi-let-7bH: heavily 2′-O-methyl modified double stranded let-7b miRNA mimic, 5p UGAGGuAGuAGGUUGUGUGGUU, 3p cuAuAcAAccuAcuGccuuccc
serum triglycerides, total cholesterol and HDL cholesterol levels (serum lipid profile) [2]: similar

mi-let-7bL: lightly 2′-O-methyl modified double stranded let-7b miRNA mimic, 5p UGAGGuAGuAGGUUGUGUGGUU, 3p CuAuAcAACCuACUGCCUUCCC
serum triglycerides, total cholesterol and HDL cholesterol levels (serum lipid profile) [2]: similar
